{
  "source": "patent US10159265B2",
  "about": "“Feed composition for reducing ruminant methanogenesis” (priority 2012, dated 2018)",
  "key": {"[1]": {"system": "\"in vitro\" ruminal fluid cultures", "test": "Ammonia (N-NH3) concentration in \"in vitro\" ruminal fluid cultures", "assay_type": "cell-based, calves", "excerpt": "(§1) Two trials following an identical experimental protocol were designed to study the effect of different pure flavonoids on rumen fermentation using a simulatory “in vitro” system based on the experimental protocol described by Theodorou M K et al. (1994) Animal Feed Science and Technology, 48 (3), p. 185-197; Mauricio, R. M., et al. (1999) Animal Feed Science and Technology 79, 321-330.\n(§2) Rumen cannulated calves which received a mixed ration mainly composed of concentrate (90:10) were used as rumen fluid donor; feed composition is presented in Table 1. The inoculum was collected and filtered through two-layer surgical gauze and kept in thermo pots. Flavonoids (Table 2) plus 600 mg of concentrate (Table 1) and 60 mg of barley straw as the substrate were dosed by triplicate in preheated bottles (39° C.) and maintained under anaerobic conditions. Flavonoids isonaringin, neoeritrocin, poncirin were purchased from INDOFINE Chemical Company, Inc (USA). 10 ml of rumen fluid and 40 ml of incubation medium were added to the bottles (McDougall, El (1948) Studies on ruminant saliva. 1. The composition and output of sheep's saliva. Biochem J. 43(1) 99-109). Once the bottles were filled and the anaerobic condition was applied, the bottles were sealed and the incubation process was started in a hot water bath. Pressure readings were made at 2, 4, 6, 8, 12, 24, 36 and 48 hours. Each sample was incubated in triplicate in two sets or batches.\n(§3) After 12 hours of incubation, one bottle (replicate) from each treatment was opened, pH was recorded and the bottle was sampled for volatile fatty acids (Jouany, J. P., 1982 Science des Aliments 2, 131-144), lactate (Taylor, K. A. C. C., 1996. Appl. Biochem. Biotechnol. Enzym. Eng. Biotechnol. 56, 49-58) and ammonia (Chaney, A. L., Marbach, E. P., 1962. Clin. Chem. 8, 130-132) analyses."}, "Megasphaera elsdenii": {"system": "Megasphaera elsdenii", "test": "qPCR relative quantification of Megasphaera elsdenii", "assay_type": "cell-based", "conditions": "12 hours of incubation", "method": "as §2, §3\n(§4) The environmental DNA was extracted using the technique proposed by Yu and Morrison (2004). Quantification of Streptococcus bovis, Megasphaera elsdenii and Selenomonas ruminantium DNA was done by qPCR using specific primers (Tajima, K. et al. 2001. Appl. Environ. Microb. 67, 2766-2774; Ouwerkerk, D., et al. 2002. J. Appl. Microbiol. 92, 753-758). Results were statistically analyzed using the PROC MIXED procedure of SAS statistical package (SAS, 2000, User's guide: Statistics, version 8 editions inst., Inc., Cary, N.C.). The least significant difference was used to compare the means. Differences between means in which P<0.05 were accepted as significant."}, "[2]": {"system": "methanogenic (archea) populations", "test": "Methane production in \"in vitro\" rumen fluid culture", "assay_type": "cell-based, calves", "set-up": "Average methane production / Accumulated methane production / Methane production / Cumulative methane production: unit not given here", "conditions": "Exp 1", "excerpt": "as §1\nas §2, with “Pressure readings were made at 2, 4, 6, 8, 12, 24, 36 and 48 hours.” left out\nThe effects of flavonoids substances on fermentation activity of certain archea populations which are theoretically responsible for the methane production were analyzed.\nThe experimental design allows determining whether the effect of flavonoids on methane reduction was derived from a general reduction in microbial activity and biogas production or contrarily flavonoid affects specifically on methanogenic (archea) populations. The presence of flavonoids in the culture medium reduced methane contribution in the total biogas production (P<0.05) although, again, the aforementioned impact was heterogeneous."}, "[3]": {"system": "\"in vitro\" ruminal fluid cultures", "test": "Volatile fatty acid concentration and molar proportions in \"in vitro\" ruminal fluid cultures", "assay_type": "cell-based, calves", "excerpt": "as §1, §2\n[…] P., 1982 Science des Aliments 2, 131-144), lactate (Taylor, K. A. C. C., 1996. Appl. Biochem. Biotechnol. Enzym. Eng. Biotechnol. 56, 49-58) and ammonia (Chaney, A. L., Marbach, E. P., 1962. Clin. Chem. 8, 130-132) analyses."}, "Streptococcus bovis": {"system": "Streptococcus bovis", "test": "qPCR relative quantification of Streptococcus bovis", "assay_type": "cell-based", "conditions": "12 hours of incubation", "method": "as §2, §3, §4"}, "[4]": {"system": "\"in vitro\" rumen fluid culture", "test": "Biogas production in \"in vitro\" rumen fluid culture (pressure meter)", "assay_type": "cell-based, calves", "set-up": "Average biogas production / Cumulative biogas production / Biogas production: unit not given here", "conditions": "Exp 1", "method": "as §1\nGas production was determined from a semi-automatic pressure meter, the relationship between pressure levels and the produced gas volume was previously calculated.\nas §2, with “Pressure readings were made at 2, 4, 6, 8, 12, 24, 36 and 48 hours.” left out"}, "Selenomonas ruminantium": {"system": "Selenomonas ruminantium", "test": "qPCR relative quantification of Selenomonas ruminantium", "assay_type": "cell-based", "conditions": "12 hours of incubation", "method": "as §2, §3, §4"}, "ruminal bacteria": {"system": "ruminal bacteria", "test": "Bacterial DNA concentration by qPCR", "assay_type": "cell-based, calves", "conditions": "12 hours of incubation", "method": "as §2, §3, §4"}, "[5]": {"system": "\"in vitro\" ruminal fluid culture", "test": "Lactate concentration in \"in vitro\" ruminal fluid culture", "assay_type": "cell-based, calves", "conditions": "12 hours of incubation", "excerpt": "as §1, §2, §3"}, "[6]": {"system": "\"in vitro\" ruminal fluid cultures", "test": "Ammonia (N-NH3) concentration in \"in vitro\" ruminal fluid cultures", "assay_type": "cell-based, calves", "conditions": "72 h"}, "[7]": {"conditions": "average over doses and incubation times"}, "[8]": {"conditions": "average over doses and incubation times, listed as neoeriocitrin"}},
  "note": "Entries after “also recorded” stand apart in the source; their conditions may differ. Marks after values point to notes of the source that are not given here.",
  "data": [
    {"compound": "C[C@@H]1O[C@@H](O[C@H]2[C@H](Oc3cc(O)c4c(c3)O[C@H](c3ccc(O)c(O)c3)CC4=O)O[C@H](CO)[C@@H](O)[C@@H]2O)[C@H](O)[C@H](O)[C@H]1O", "note": "[Neoeriocitrin]", "values": [
      {"measurement": "N-NH3 concentration", "setting": "[1]; 0 h (initial constant value)", "result": 149.99, "unit": "mg/L"},
      {"measurement": "N-NH3 concentration", "setting": "[1]; 12 h", "result": 186.19, "unit": "mg/L"},
      {"measurement": "N-NH3 concentration, average (M)", "setting": "[1]; average over incubation times", "result": 227.84, "unit": "mg/L"},
      {"measurement": "Relative Quantification 2^(ΔΔCt) M. elsdenii", "setting": "Megasphaera elsdenii", "result": "0.76 ^a"},
      {"measurement": "Dosage effect on methane proportion of biogas", "setting": "[2]; 500 vs. 200 mg/kg DM", "result": "tended to depress methane production"},
      {"measurement": "Accumulated methane production", "setting": "[2]; 12 h", "result": 29.65},
      {"measurement": "Proportion of methane in the produced biogas", "setting": "[2]; 12 h", "result": 14.00},
      {"measurement": "Accumulated methane production", "setting": "[2]; 24 h", "result": 37.03},
      {"measurement": "Proportion of methane in the produced biogas", "setting": "[2]; 24 h", "result": 15.75},
      {"measurement": "Accumulated methane production", "setting": "[2]; 48 h", "result": 41.74},
      {"measurement": "Proportion of methane in the produced biogas", "setting": "[2]; 48 h", "result": 16.33},
      {"measurement": "Accumulated methane production", "setting": "[2]; 72 h", "result": 45.18},
      {"measurement": "Proportion of methane in the produced biogas", "setting": "[2]; 72 h", "result": 18.19},
      {"measurement": "Average methane production", "setting": "[2]; [7]", "result": "38.40^a"},
      {"measurement": "Proportion of methane in the produced biogas", "setting": "[2]; [7]", "result": "16.07^a"},
      {"measurement": "Average methane production", "setting": "[2]; [8]", "result": "increased"},
      {"measurement": "Proportion of methane in the produced biogas", "setting": "[2]; [8]", "result": "significantly increased; also recorded: increased the methane proportion"},
      {"measurement": "Methane production", "setting": "[2]; dose 1, 0.2 g/kg DM", "result": 39.51},
      {"measurement": "Proportion of methane in the produced biogas", "setting": "[2]; dose 1, 0.2 g/kg DM", "result": 15.96},
      {"measurement": "Methane production", "setting": "[2]; dose 2, 0.5 g/kg DM", "result": 37.28},
      {"measurement": "Proportion of methane in the produced biogas", "setting": "[2]; dose 2, 0.5 g/kg DM", "result": 16.17},
      {"measurement": "% Acetate, molar ratio", "setting": "[3]; 0 h", "result": 62.51, "unit": "mol/100 mol"},
      {"measurement": "% Butyrate, molar ratio", "setting": "[3]; 0 h", "result": 9.07, "unit": "mol/100 mol"},
      {"measurement": "% Propionate, molar ratio", "setting": "[3]; 0 h", "result": 20.03, "unit": "mol/100 mol"},
      {"measurement": "A/P rate (acetate/propionate)", "setting": "[3]; 0 h", "result": 3.12},
      {"measurement": "VFA concentration", "setting": "[3]; 0 h (initial constant value)", "result": 13.78, "unit": "mmol/L"},
      {"measurement": "% Acetate, molar ratio", "setting": "[3]; 12 h", "result": 55.73, "unit": "mol/100 mol"},
      {"measurement": "% Butyrate, molar ratio", "setting": "[3]; 12 h", "result": 11.84, "unit": "mol/100 mol"},
      {"measurement": "% Propionate, molar ratio", "setting": "[3]; 12 h", "result": 26.77, "unit": "mol/100 mol"},
      {"measurement": "A/P rate (acetate/propionate)", "setting": "[3]; 12 h", "result": 2.09},
      {"measurement": "VFA concentration", "setting": "[3]; 12 h", "result": 39.75, "unit": "mmol/L"},
      {"measurement": "% Acetate, molar ratio", "setting": "[3]; 72 h", "result": 56.21, "unit": "mol/100 mol"},
      {"measurement": "% Butyrate, molar ratio", "setting": "[3]; 72 h", "result": 11.79, "unit": "mol/100 mol"},
      {"measurement": "% Propionate, molar ratio", "setting": "[3]; 72 h", "result": 24.39, "unit": "mol/100 mol"},
      {"measurement": "A/P rate (acetate/propionate)", "setting": "[3]; 72 h", "result": 2.31},
      {"measurement": "VFA concentration", "setting": "[3]; 72 h", "result": 53.75, "unit": "mmol/L"},
      {"measurement": "% Acetate, molar ratio, average (μ)", "setting": "[3]; average over incubation times", "result": 58.15, "unit": "mol/100 mol"},
      {"measurement": "% Butyrate, molar ratio, average (μ)", "setting": "[3]; average over incubation times", "result": "10.90 ^b mol/100 mol"},
      {"measurement": "% Propionate, molar ratio, average (M)", "setting": "[3]; average over incubation times", "result": "23.73 ^a mol/100 mol"},
      {"measurement": "VFA concentration, average (μ)", "setting": "[3]; average over incubation times", "result": 35.76, "unit": "mmol/L"},
      {"measurement": "% Propionate, molar ratio, average (M)", "setting": "[3]; average over incubation times, listed as neoeritrocin", "result": 23.7, "unit": "mol/100 mol"},
      {"measurement": "Relative Quantification 2^(ΔΔCt) S. bovis", "setting": "Streptococcus bovis", "result": 0.62},
      {"measurement": "Cumulative biogas production", "setting": "[4]; 12 h incubation", "result": 211.78},
      {"measurement": "Cumulative biogas production", "setting": "[4]; 24 h incubation", "result": 259.11},
      {"measurement": "Cumulative biogas production", "setting": "[4]; 48 h incubation", "result": 288.43},
      {"measurement": "Cumulative biogas production", "setting": "[4]; 72 h incubation", "result": 307.80},
      {"measurement": "Biogas production", "setting": "[4]; dose 1, 0.2 g/kg DM", "result": 277.08},
      {"measurement": "Biogas production", "setting": "[4]; dose 2, 0.5 g/kg DM", "result": 256.47},
      {"measurement": "Relative Quantification 2^(ΔΔCt) S. ruminantium", "setting": "Selenomonas ruminantium", "result": 0.79},
      {"measurement": "Bacteria DNA", "setting": "ruminal bacteria", "result": "13.14 ^a μg/ml"},
      {"measurement": "Lactate", "setting": "[5]", "result": 122.5, "unit": "mg/L"},
      {"measurement": "N-NH3 concentration", "setting": "[6]", "result": 347.34, "unit": "mg/L"}
    ]}
  ]
}
